# Data reported in patent US10696678B2, “Kinase inhibitor, and preparing method and pharmaceutical use thereof” (GAN & LEE PHARMACEUTICALS, priority 2015, dated 2020).
# Where two headings read alike, the source gives them in different places.
# Columns and labels:
# [1] = Pharmacokinetic study in mice (intragastric and intravenous); assay type: in vivo, ICR mice; conditions: for AUC: read-out: Area under the curve AUC; for MRT: read-out: Retention time MRT
# Method: (§1) 2.3 Preparation of Test Compounds
# An appropriate amount of sample was weighed, then 0.1% hydroxyethyl cellulose/0.5% Tween 80 was added to final volume to obtain a solution of 0.5 mg/ml for intragastrical administration.
# (§2) 2.4 Test Drug Administration
# Male ICR mice, 3 for each test compound, were intragastrically administered test drugs at a dose of 5 mg/kg and a drug volume of 10 ml/kg after an overnight fast.
# Male ICR mice, 3 for each test compound, were administered by intravenous injection test drugs at a dose of 2 mg/kg and a drug volume of 10 ml/kg after an overnight fast.
# (§3) 3. Experimental Operation
# The carotid artery of the animal was catheterized and blood sample was removed prior to dosing and at 0.25, 0.5, 1, 2, 4, 8, 12 and 24 hours after dosing for intragastrical administration group. Whole blood was anticoagulated with EDTA-K2, centrifuged to remove the supernatant, and cryopreserved at −20° C. until being analyzed. The carotid artery of the animal was catheterized and blood sample was removed prior to dosing and at 0.083, 0.25, 0.5, 1, 2, 4, 8, 12 and 24 hours after dosing for i.v. administration group. Plasma sample treatment was the same as intragastrical administration group.
# [2] = Pharmacokinetic study in rats (intragastric); assay type: in vivo, SD rats; conditions: 5 mg/kg
# Method: as §1, §2, §3
# Whole blood was anticoagulated with EDTA-K2, centrifuged to remove the supernatant, and cryopreserved at −20° C. until being analyzed.
# CDK1/A2 = CDK1/A2 (Homo sapiens (Human), UniProt P06493); experiment: CDKs inhibition assay (ADP-Glo Kinase Assay), CDK1; conditions: read-out: IC50 (nM) CDK1/A2
# Method: (2) Preparation of Test Compound:
# (§4) a. Test compounds at a certain concentration were taken respectively, and diluted with kinase reaction buffer I to compound solutions with a final concentration of 50 μM;
# (§5) 4. Preparation of reaction substrate and ATP mixed solution:
# a. Preparation of ATP solution:
# (§6) 200 μl of 0.1 mM ATP solution: 2 μl of 10 mM ATP was added into 198 μl kinase reaction buffer I;
# (§7) 300 μl of 50 μl M ATP solution: 150 μl kinase reaction buffer I was added into 150 μl of above-mentioned 0.1 mM ATP solution;
# (§8) b. Preparation of 300 μl reaction substrate solution:
# (§9) 150 μl of 1 μg/μl reaction substrate stock solution was added into 150 μl kinase reaction buffer I and uniformly mixed;
# (§10) c. Above-mentioned a/b solutions were mixed to obtain mixed solutions respectively.
# (§11) 2 μl compound solution at each concentration was added into a 384-well plate respectively, and centrifuged for 3 min;
# (§12) 4 μl kinase solution was added into each well, centrifuged at 5000 rpm for 10 min at 18° C., and shaked well for 10 min on a shaker;
# (§13) 4 μl substrate and ATP mixed solution were added into each well, centrifuged at 5000 rpm for 10 min at 18° C., and shaked well for 90 min on a shaker at 37° C.;
# (§14) The 384 well plate was removed and allow to achieve room temperature;
# (§15) 10 μl ADP-Glo reagent was added into each well, centrifuged at 5000 rpm for 10 min at 18° C., and shaked well for 40 min on a shaker at 25° C. to terminate the reaction;
# (§16) 20 μl kinase assay reagent was added into each well, centrifuged at 5000 rpm for 10 min at 18° C., and shaked well for 30 min on a shaker at 25° C.;
# (§17) Fluorescence values were read by M1000pro microplate reader.
# (§18) The inhibition rate of each compound at each concentration point was calculated according to the following equation, and IC50 value was calculated by curve fitting using GraphPad Prism 5 software.
# CDK6/D3 = CDK6/D3 (Homo sapiens (Human), UniProt Q00534); experiment: CDKs inhibition assay (ADP-Glo Kinase Assay), CDK6; conditions: for Ratio IC50 (CDK6)/IC50 (CDK1): smaller value = better selectivity for CDK6
# Method: (2) Preparation of Test Compound:
# as §4, §5
# a. Preparation of ATP solution:
# as §6, §7, §8, §9, §10, §11, §12, §13, §14, §15, §16, §17, §18
# [3] = tested on: human breast cancer cell line MDB-MA-231; experiment: Proliferation inhibition assay on human breast cancer cell line MDA-MB-231 (DAPI staining, In Cell Analyzer); assay type: cell-based; conditions: MDA-MB-231, read-out: IC50 for inhibition of proliferation of human breast cancer cell line MDB-MA-231, 72 h incubation
# Method: Experimental Preparation:
# 1. MDA-MB-231 cells were seeded at 4000 cells/100 ul/well to a 96-well plate with black transparent bottom, and cultured overnight at 37° C.;
# 3. Fixation: the cell plate was taken, medium was removed, and 50 μl of 4% paraformaldehyde was added to each well and fixed 10 min;
# 4.50 μl 0.1 M glycine was added to neutralize for 10 min;
# 6. Permeabilization: 50 ul of 0.2% TritonX-100 was added to each well and permeabilized at room temperature for 10 min;
# 8.5 mg/mL DAPI stock solution was diluted at 1:5000 (final concentration 1 μg/ml) and the cells were stained at room temperature for 20 min.
# 10. The plate was scanned and analyzed on In cell analyser.
# CDK4/D3 = CDK4/D3 (Homo sapiens (Human), UniProt P11802); experiment: CDKs inhibition assay (ADP-Glo Kinase Assay), CDK4; conditions: for selectivity for CDK4/6 (over CDK1) compared with the control compound LY2835219: in words; for Ratio IC50 (CDK4)/IC50 (CDK1): smaller value = better selectivity for CDK4
# Method: (2) Preparation of Test Compound:
# as §4, §5
# a. Preparation of ATP solution:
# as §6, §7, §8, §9, §10, §11, §12, §13, §14, §15, §16, §17, §18
# [4] = male, ICR, mouse, plasma, iv, i.v. (2 mg/kg)
# [5] = male, ICR, mouse, plasma, po, i.g. (5 mg/kg)
Compound,Apparent volume of distribution Vz/F ([1]; i.v. (2 mg/kg)),"AUC [1, 4]","MRT [1, 4]","bioavailability ([1]; male, ICR, mouse, plasma, oral, i.g. (5 mg/kg) vs i.v. (2 mg/kg), read-out: Bioavailability F)","Vd/F ([1]; male, ICR, mouse, plasma, po, i.g. (5 mg/kg), read-out: Apparent volume of distribution Vz/F)","AUC [1, 5]","MRT [1, 5]",Area under the curve AUC [2],IC50 (CDK1/A2),IC50 (CDK6/D3),Ratio IC50 (CDK6)/IC50 (CDK1) (CDK6/D3),IC50 [3],IC50 (CDK4/D3),selectivity for CDK4/6 (over CDK1) compared with the control compound LY2835219 (CDK4/D3),Ratio IC50 (CDK4)/IC50 (CDK1) (CDK4/D3)
CCN1CCN(Cc2ccc(Nc3ncc(F)c(-c4cc(F)c5nc(C)n(C(C)C)c5c4)n3)nc2)CC1 [LY2835219],7.21 ± 1.08 L/kg,674 ± 82.1 ng·h/mL,1.64 ± 0.17 h,45.1%,16.1 ± 0.963 L/kg,756 ± 34 ng·h/mL,3.08 ± 0.02 h,3275 ± 731 ng·h/mL,–,–,–,–,–,–,–
"Cc1nc(Nc2ncc(F)c(-c3cc(F)c4nc5n(c4c3)C(C)(C)CC5)n2)ccc1CC1CCNCC1 [Example 30, 5-Fluoro-4-(5-fluoro-1,1-dimethyl-2,3-dihydro-1H-benzo[d]pyrrolo[1,2-a]imidazol-7-yl)-N-(6-methyl-5-(piperidine-4-ylmethyl)pyridin-2-yl)pyrimidin-2-amine]",–,–,–,–,–,–,–,–,744 nM,12.2 nM,0.016,300 nM,1.2 nM,better selectivity for CDK4/6 than the control compound,0.002
"CN1CCN(c2ccc(Nc3ncc(F)c(-c4cc(F)c5nc6n(c5c4)C(C)(C)CC6)n3)nc2)CC1 [Example 43, 5-Fluoro-4-(5-fluoro-1,1-dimethyl-2,3-dihydro-1H-benzo[d]pyrrolo[1,2-a]imidazol-7-yl)-N-(5-(4-methylpiperazin-1-yl)pyridin-2-yl)pyrimidin-2-amine]",–,–,–,–,–,–,–,–,732 nM,0.3 nM,0.0004,58 nM,13 nM,better selectivity for CDK4/6 than the control compound,0.018
